From patent US20050059719A1 (priority 2003, published 2005)

Settings: pH 5.5
Method: The fraction of the dose precipitating in the form of free base during dissolution is dependent on experimental factors such as stirring speed, which determines mixing kinetics of the highly supersaturated microenvironment solution into the bulk of the dissolution medium.
The dissolution studies were conducted using USP apparatus 2 in acetate buffer, pH 5.5 and 37° C.
The pH of the dissolution medium remained substantially constant at ˜5.5 until the end of the test.

Compound: CN(C)Cc1nccn1-c1ccc(NC(=O)c2cc(C(F)(F)F)nn2-c2ccc3onc(N)c3c2)c(F)c1.Cl [Factor Xa inhibitor]
- concentration in the dissolution medium relative to saturation solubility at this pH: ~10 fold
